Measured values published in ChEMBL document CHEMBL5543097, “Synthesis and structure-activity relationships of novel 14-membered 2-fluoro ketolides with structural modification at the C11 position” (Eur J Med Chem, 2024).
Values after ≈ are worked out from the molar mass of the structure shown.

Experiments:
[1] = tested on: Staphylococcus epidermidis; test: Antibacterial activity against erythromycin-resistant Staphylococcus epidermidis 19-4 assessed as inhibition of visible bacterial growth incubated for 18 hrs by broth microdilution method; format: functional
Haemophilus influenzae [2] = test: Antibacterial activity against Haemophilus influenzae HIN 19-15 assessed as inhibition of bacterial growth incubated for 20 to 24 hrs by CLSI based broth microdilution method; format: functional; conditions: time 20-24 hrs
Streptococcus pyogenes = test: Antibacterial activity against erythromycin-resistant Streptococcus pyogenes ATCC 19615 assessed as inhibition of visible bacterial growth incubated for 18 hrs by broth microdilution method; format: functional
Streptococcus pneumoniae [3] = test: Antibacterial activity against erythromycin-resistant Streptococcus pneumoniae SPN19-8 assessed as inhibition of visible bacterial growth incubated for 18 hrs by broth microdilution method; format: functional
Streptococcus agalactiae [4] = test: Antibacterial activity against erythromycin-resistant Streptococcus agalactiae 19-9 assessed as inhibition of visible bacterial growth incubated for 18 hrs by broth microdilution method; format: functional
[5] = tested on: Staphylococcus epidermidis; test: Antibacterial activity against erythromycin-resistant Staphylococcus epidermidis 19-9 assessed as inhibition of visible bacterial growth incubated for 18 hrs by broth microdilution method; format: functional
[6] = tested on: Staphylococcus epidermidis; test: Antibacterial activity against erythromycin-resistant Staphylococcus epidermidis 19-11 assessed as inhibition of visible bacterial growth incubated for 18 hrs by broth microdilution method; format: functional
Streptococcus pneumoniae [7] = test: Potency index, ratio of telithromycin MIC to test compound MIC for antibacterial activity against Streptococcus pneumoniae SPN19-13 assessed as inhibition of visible bacterial growth incubated for 18 hrs by broth microdilution method; format: functional
Streptococcus pneumoniae [8] = test: Potency index, ratio of telithromycin MIC to test compound MIC for antibacterial activity against Streptococcus pneumoniae SPN19-14 assessed as inhibition of visible bacterial growth incubated for 18 hrs by broth microdilution method; format: functional
[9] = tested on: Staphylococcus epidermidis; test: Antibacterial activity against erythromycin-resistant Staphylococcus epidermidis 19-5 assessed as inhibition of visible bacterial growth incubated for 18 hrs by broth microdilution method; format: functional
[10] = tested on: Staphylococcus epidermidis; test: Antibacterial activity against erythromycin-resistant Staphylococcus epidermidis 19-6 assessed as inhibition of visible bacterial growth incubated for 18 hrs by broth microdilution method; format: functional
Haemophilus influenzae [11] = test: Antibacterial activity against Haemophilus influenzae HIN 20-18 assessed as inhibition of bacterial growth incubated for 20 to 24 hrs by CLSI based broth microdilution method; format: functional; conditions: time 20-24 hrs
Streptococcus pneumoniae [12] = test: Antibacterial activity against erythromycin-resistant Streptococcus pneumoniae SPN19-14 assessed as inhibition of visible bacterial growth incubated for 18 hrs by broth microdilution method; format: functional
[13] = Cytotoxicity against mouse AML12 cells assessed as reduction in cell viability incubated for 48 hrs by MTT assay; format: toxicity, cell-based
Moraxella catarrhalis [14] = test: Antibacterial activity against Moraxella catarrhalis BCA 19-5 assessed as inhibition of bacterial growth incubated for 24 hrs by CLSI based broth microdilution method; format: functional; conditions: Moraxella catarrhalis, BCA 19-5, 24 h, read-out: MIC
Streptococcus pneumoniae [15] = test: Antibacterial activity against erythromycin-resistant Streptococcus pneumoniae SPN19-13 assessed as inhibition of visible bacterial growth incubated for 18 hrs by broth microdilution method; format: functional
Streptococcus pneumoniae [16] = test: Potency index, ratio of telithromycin MIC to test compound MIC for antibacterial activity against Streptococcus pneumoniae SPN19-8 assessed as inhibition of visible bacterial growth incubated for 18 hrs by broth microdilution method; format: functional
Moraxella catarrhalis [17] = test: Antibacterial activity against Moraxella catarrhalis BCA 19-31 assessed as inhibition of bacterial growth incubated for 24 hrs by CLSI based broth microdilution method; format: functional; conditions: BCA 19-31, 24 h
[18] = tested on: Staphylococcus epidermidis; test: Antibacterial activity against erythromycin-resistant Staphylococcus epidermidis 19-8 assessed as inhibition of visible bacterial growth incubated for 18 hrs by broth microdilution method; format: functional
Moraxella catarrhalis [19] = test: Antibacterial activity against Moraxella catarrhalis BCA 19-6 assessed as inhibition of bacterial growth incubated for 24 hrs by CLSI based broth microdilution method; format: functional
Haemophilus influenzae [20] = test: Antibacterial activity against Haemophilus influenzae HIN 19-18 assessed as inhibition of bacterial growth incubated for 20 to 24 hrs by CLSI based broth microdilution method; format: functional; conditions: HIN 19-18, time 20-24 hrs
Streptococcus agalactiae [21] = test: Antibacterial activity against erythromycin-resistant Streptococcus agalactiae 19-8 assessed as inhibition of visible bacterial growth incubated for 18 hrs by broth microdilution method; format: functional
[22] = Metabolic stability in human liver microsome assessed as half life measured at 60 mins by LC-MS/MS analysis; format: ADME; conditions: liver microsomes
[23] = Metabolic stability in human liver microsome assessed as intrinsic clearance measured at 60 mins by LC-MS/MS analysis; format: ADME; conditions: liver microsomes, read-out: CLH
[24] = Metabolic stability in human liver microsome assessed as parent compound remaining in presence of NADPH measured at 60 mins by LC-MS/MS analysis; format: ADME; conditions: liver microsomes, read-out: Stability
[25] = Metabolic stability in human liver microsome assessed as parent compound remaining in absence of NADPH measured at 60 mins by LC-MS/MS analysis; format: ADME; conditions: liver microsomes, read-out: Stability
[26] = Moraxella catarrhalis, BCA 19-6, 24 h, read-out: MIC

| Compound | MIC [1] | MIC (Haemophilus influenzae [2]) | MIC (Streptococcus pyogenes) | MIC (Streptococcus pneumoniae [3]) | MIC (Streptococcus agalactiae [4]) | MIC [5] | MIC [6] | Ratio (Streptococcus pneumoniae [7]) | Ratio (Streptococcus pneumoniae [8]) | MIC [9] | MIC [10] | MIC (Haemophilus influenzae [11]) | MIC (Streptococcus pneumoniae [12]) | CC50 at 48 h [13] | MIC (Moraxella catarrhalis [14]) | MIC (Streptococcus pneumoniae [15]) | MIC (Moraxella catarrhalis [17]) | MIC [18] | MIC (Moraxella catarrhalis [19]; [26]) | MIC (Haemophilus influenzae [20]) | further results |
| --- | --- | --- | --- | --- | --- | --- | --- | --- | --- | --- | --- | --- | --- | --- | --- | --- | --- | --- | --- | --- | --- |
| CC[C@H]1OC(=O)[C@@](C)(F)C(=O)[C@H](C)[C@@H](O[C@@H]2O[C@H](C)C[C@H](N(C)C)[C@H]2O)[C@](C)(OC)C[C@@H](C)C(=O)[C@H](C)[C@H]2N(CCCOC(=O)Nc3cccs3)C(=O)O[C@]12C | 0.25 µg/mL (≈ 0.307 µM) | 4 µg/mL (≈ 4.91 µM) | < 0.03 µg/mL | 0.125 µg/mL (≈ 0.154 µM) | 1 µg/mL (≈ 1.23 µM) | 0.5 µg/mL (≈ 0.614 µM) | < 0.03 µg/mL | <4 | <4 | < 0.03 µg/mL | 0.06 µg/mL (≈ 0.0737 µM) | 8 µg/mL (≈ 9.83 µM) | 0.25 µg/mL (≈ 0.307 µM) | > 100 µM | 0.25 µg/mL (≈ 0.307 µM) | 0.25 µg/mL (≈ 0.307 µM) | 0.06 µg/mL (≈ 0.0737 µM) | 0.06 µg/mL (≈ 0.0737 µM) | 0.25 µg/mL (≈ 0.307 µM) | 4 µg/mL (≈ 4.91 µM) | Ratio (Streptococcus pneumoniae [16]): <4 |
| CC[C@H]1OC(=O)[C@@](C)(F)C(=O)[C@H](C)[C@@H](O[C@@H]2O[C@H](C)C[C@H](N(C)C)[C@H]2O)[C@](C)(OC)C[C@@H](C)C(=O)[C@H](C)[C@H]2N(CCCOC(=O)Nc3cccc(C)c3)C(=O)O[C@]12C | < 0.03 µg/mL | 8 µg/mL (≈ 9.73 µM) | < 0.03 µg/mL | 0.125 µg/mL (≈ 0.152 µM) | 0.06 µg/mL (≈ 0.073 µM) | 0.06 µg/mL (≈ 0.073 µM) | < 0.03 µg/mL |  |  | < 0.03 µg/mL | 0.03 µg/mL (≈ 0.0365 µM) |  | < 0.03 µg/mL | 76.8 µM | < 0.03 µg/mL | < 0.03 µg/mL | < 0.03 µg/mL | < 0.03 µg/mL | < 0.03 µg/mL | 8 µg/mL (≈ 9.73 µM) | MIC (Streptococcus agalactiae [21]): < 0.03 µg/mL; half-life [22]: 5.2 min; microsomal CLint [23]: 266 µL/min/mg; remaining at 1 h [24]: 1.2%; remaining at 1 h [25]: 97.5% |
| CC[C@H]1OC(=O)[C@@](C)(F)C(=O)[C@H](C)[C@@H](O[C@@H]2O[C@H](C)C[C@H](N(C)C)[C@H]2O)[C@](C)(OC)C[C@@H](C)C(=O)[C@H](C)[C@H]2N(CCCOC(=O)Nc3ccc4c(c3)OCO4)C(=O)O[C@]12C | 0.06 µg/mL (≈ 0.0704 µM) | 4 µg/mL (≈ 4.7 µM) | < 0.03 µg/mL | 0.03 µg/mL (≈ 0.0352 µM) | 0.125 µg/mL (≈ 0.147 µM) | 0.125 µg/mL (≈ 0.147 µM) | < 0.03 µg/mL | <4 | <4 | < 0.03 µg/mL | 0.06 µg/mL (≈ 0.0704 µM) | 8 µg/mL (≈ 9.39 µM) | < 0.03 µg/mL | 85.6 µM | < 0.03 µg/mL | < 0.03 µg/mL |  | < 0.03 µg/mL | < 0.03 µg/mL |  | MIC (Streptococcus agalactiae [21]): < 0.03 µg/mL; Ratio (Streptococcus pneumoniae [16]): <4; MIC (Moraxella catarrhalis [19]; 24 h): 0.06 µg/mL (≈ 0.0704 µM) |
| CC[C@H]1OC(=O)[C@@](C)(F)C(=O)[C@H](C)[C@@H](O[C@@H]2O[C@H](C)C[C@H](N(C)C)[C@H]2O)[C@](C)(OC)C[C@@H](C)C(=O)[C@H](C)[C@H]2N(CCCOC(=O)Nc3c(C)noc3C)C(=O)O[C@]12C | 0.25 µg/mL (≈ 0.302 µM) | 1 µg/mL (≈ 1.21 µM) | < 0.03 µg/mL | 0.25 µg/mL (≈ 0.302 µM) | 4 µg/mL (≈ 4.84 µM) | 0.5 µg/mL (≈ 0.605 µM) | 0.125 µg/mL (≈ 0.151 µM) |  |  | 0.03 µg/mL (≈ 0.0363 µM) | 0.25 µg/mL (≈ 0.302 µM) | 8 µg/mL (≈ 9.67 µM) | 0.25 µg/mL (≈ 0.302 µM) | > 100 µM | 0.5 µg/mL (≈ 0.605 µM) | 0.25 µg/mL (≈ 0.302 µM) | 0.125 µg/mL (≈ 0.151 µM) | 0.25 µg/mL (≈ 0.302 µM) | 0.5 µg/mL (≈ 0.605 µM) | 1 µg/mL (≈ 1.21 µM) | half-life [22]: 37.2 min; microsomal CLint [23]: 37.3 µL/min/mg; remaining at 1 h [24]: 26.6%; remaining at 1 h [25]: 101% |
